Where “and” joins values, the source holds several entries; their conditions need not be identical. Identical values can stand only once. Like-named read-outs stand apart in the source and are kept apart here.
Key:
[1] = system: T. b. brucei Lister 427 (wild-type); experiment: Drug susceptibility test, Lister 427WT (resazurin); assay type: cell-based; details: Trypanosoma brucei, read-out: Lister-427 EC50
Method: (§1) Fluorescence was determined using a FLUOstar Optima (BMG Labtech, Durham, N.C.) and the results fitted to a sigmoid curve with variable slope using Prism 5.0 (GraphPad, San Diego, Ca).

T. b. brucei TbAT1-KO = experiment: microbe, parasite or virus in culture; assay type: cell-based, Trypanosoma brucei brucei; details: for EC50: Trypanosoma brucei, read-out: TbAT1-KO EC50; for RF (resistance factor) TbAT1-KO: ratio of EC50 between TbAT1-KO and Lister-427
Method: as §1

T. b. brucei B48 = experiment: microbe, parasite or virus in culture; assay type: cell-based, Trypanosoma brucei brucei; details: for EC50: Trypanosoma brucei, read-out: B48 EC50; for RF (resistance factor) B48: ratio of EC50 between B48 and Lister-427
Method: as §1

T. b. brucei ISMR1 = experiment: microbe, parasite or virus in culture; assay type: cell-based, Trypanosoma brucei brucei; details: for EC50: Trypanosoma brucei, read-out: ISMR1 EC50; for RF (resistance factor) ISMR1: ratio of EC50 between ISMR1 and Lister-427
Method: as §1

T. brucei Squib 427 = experiment: In vitro drug susceptibility, T. brucei Squib 427 (resazurin); assay type: cell-based, Trypanosoma brucei brucei; details: for selectivity index (SI) for T. b. brucei: MRC-5 versus T. b. brucei; for EC50: Trypanosoma brucei
Method: (§2) All trypanosome strains were cultured in the standard HMI-9 medium supplemented with 10% fetal bovine serum (FBS) at 37° C. in a 5% CO2 atmosphere.

[2] = system: T. vaginalis trophozoites (metronidazole susceptible G3 strain); experiment: Trichomonas vaginalis in vitro assay; assay type: cell-based; details: Trichomonas vaginalis; Table 6; average of 2-5 independent replicates
Method: T. vaginalis trophozoites (metronidazole susceptible G3 strain) were grown in vitro in modified Diamond's media (MDM) with 10% heat inactivated horse serum (HIHS) acquired from Gibco Life Technologies. After medium preparation, the pH was adjusted to 6.3-6.4 employing 1.0 M aq. HCl. Parasites cultures were passaged every day by taking 1 mL of cell culture into a 25 mL bottle of fresh media to ensure the cells were kept at the appropriate concentration of ˜2×10^6 cells/mL. The culture flasks were filled completely and tightly capped to provide the cells with an anaerobic environment. The parasites were maintained in incubation at 37° C. When culturing in multiwell plates, the plates were sealed with Nescofilm® and inserted in BD GasPak EZ pouches (BD Diagnostics, UK) in order to create anaerobic conditions. Assays were performed with 5×10^4 trophozoites/well (100 μL) to which compound dilutions were added (100 μL). Outside wells of columns and rows were filled with 200 μL of sterile water. Plates were sealed with Nescofilm® and incubated under anaerobic conditions as described above. After 24 h, 30 μL of assay dye solution (resorufin) was added, and incubated for 1-2 h before being read using Fluostar Optima (BMG Labtech, UK) at an excitation wavelength of 544 nm and an emission wavelength of 620 nm.

[3] = system: T. cruzi Tulahuen CL2 β galactosidase strain; experiment: T. cruzi Tulahuen CL2 β galactosidase strain on MRC-5SV2 cells (CPRG); assay type: cell-based, Trypanosoma cruzi; details: Trypanosoma cruzi, TULAHUEN, MRC-5 SV2; Table 5; average of 2-4 independent replicates
Method: All cultures and assays were conducted at 37° C./5% CO2. […] The results were expressed as % reduction in parasite burdens compared to control wells from which an EC50 was calculated.

[4] = Cytotoxicity against MRC-5 fibroblasts; details: human
Method: Cytotoxicity was assayed against MRC-5 fibroblasts. Results are depicted in Tables 4 and 5.

[5] = system: T. b. rhodesiense STIB-900; experiment: In vitro drug susceptibility, T. b. rhodesiense STIB-900 (resazurin); assay type: cell-based, Trypanosoma brucei rhodesiense; details: for EC50: Trypanosoma brucei, RHODESIENSE
Method: as §2

T. b. brucei Squib 427 = experiment: In vivo antiparasitic activity in mice (T. brucei; acute model); parameters: species or system Trypanosoma brucei brucei; details: for clinical symptoms of trypanosomiasis / parasitemia: infected mice, 5 consecutive days, test compound 25 mg/kg PO b.i.d. (FH7429_D also 10 mg/kg s.i.d. IP), suramin 10 mg/kg
Method: The test compound of the invention was formulated in 10% (V/V) PEG400 in water at 2 mg/mL and was freshly prepared at every administration. The test compound was administered orally (PO) b.i.d. for 5 days at 25 mg/kg. The reference drug suramin was formulated in PBS at 2.5 mg/mL and administered s.i.d. IP for 5 days at 10 mg/kg. Treatment was initiated ½ hour prior to the IP infection.

T. cruzi (Y-strain) = experiment: In vivo antiparasitic activity in mice (T. cruzi Y-strain); parameters: species or system Trypanosoma cruzi; details: 25 mg/kg PO b.i.d. for five days starting at 5 dpi
Method: The animals were allowed to acclimate for 7 days before starting the experiments. […] Age-matched non-infected mice were maintained under identical conditions. The animals were divided into the following groups (n=6): uninfected (non-infected and non-treated), untreated (infected but treated only with vehicle), and treated (infected and treated with the compounds). […] Formulations were prepared freshly before each administration. Only mice with positive parasitemia were used in the infected groups. Parasitemia was individually checked by direct microscopic counting of the number of parasites in 5 μl of blood (Panel A—FIG. 5), and mice were checked for mortality daily until 30 days post-treatment (corresponding to 40 dpi). Mortality is expressed as the percent cumulative mortality (CM; Panel B—FIG. 5).

[6] = read-out: T.b. brucei EC50, Table 4, average of 2-6 independent determinations
[7] = MRC-5 fibroblasts, MRC-5 EC50, Table 4, cytotoxicity
[8] = MRC-5 fibroblasts, MRC-5 EC50, Table 5, cytotoxicity
[9] = read-out: EC50 against T. brucei

SMILES	EC50 [1]	EC50 (T. b. brucei TbAT1-KO)	RF (resistance factor) TbAT1-KO (T. b. brucei TbAT1-KO)	EC50 (T. b. brucei B48)	EC50 (T. b. brucei ISMR1)	RF (resistance factor) ISMR1 (T. b. brucei ISMR1)	EC50 (T. brucei Squib 427; [6])	EC50 [2]	EC50 [3]	EC50 [4, 7]	EC50 [4, 8]	melting point	EC50 ([5]; read-out: T.b. rhod. EC50)	other results
N=C(N)c1ccc(/N=N/Nc2ccc(C(=N)N)cc2)cc1 [Diminazene]	420 ± 64 nM	4500 ± 900 nM	10.6	7200 ± 1600 nM	2900 ± 420 nM	6.9	–	–	–	–	–	–	–	–
Nc1ncnc2c1c(-c1ccc(Cl)c(Cl)c1)cn2[C@@H]1O[C@H](CO)[C@@H](O)[C@H]1O [FH3147, 4-amino-5-(3,4-dichlorophenyl)-N7-(β-D-ribofuranosyl)-pyrrolo[2,3-d]pyrimidine]	–	–	–	–	–	–	3070 nM	20 nM	190 nM	14700 nM	14700 nM	221 to 223 °C	320 nM	selectivity index (SI) for T. b. brucei (T. brucei Squib 427): ~5
Nc1ncnc2c1ccn2[C@@H]1O[C@H](CO)[C@@H](O)[C@H]1O [FH5284, tubercidin]	150 ± 30 nM	2600 ± 700 nM	> 17 and 17.2	4300 ± 1300 nM	1700 ± 500 nM	–	480 nM	–	340 nM	–	–	–	–	EC50 [4]: 2230 nM
Nc1ncnc2c1c(-c1cccc(Cl)c1)cn2[C@@H]1O[C@H](CO)[C@@H](O)[C@H]1O [FH8459, 4-amino-5-(3-chlorophenyl)-N7-(β-D-ribofuranosyl)-pyrrolo[2,3-d]pyrimidine]	–	–	–	–	–	–	9900 nM	240 nM	1420 nM	32800 nM	32800 nM	135 °C	6880 nM	EC50 (T. brucei Squib 427; [9]): < 10000 nM
CC[n+]1c(-c2ccccc2)c2cc(N/N=N/c3cccc(C(=N)N)c3)ccc2c2ccc(N)cc21 [Isometamidium]	650 ± 85 nM	750 ± 140 nM	1.2	560 ± 130 nM	3100 ± 500 nM	4.81	–	–	–	–	–	–	–	RF (resistance factor) B48 (T. b. brucei B48): 0.85
Nc1ncnc2c1c(-c1ccc(F)cc1)cn2[C@@H]1O[C@H](CO)[C@@H](O)[C@H]1O [MS1001, 4-amino-5-(4-fluorophenyl)-N7-(β-D-ribofuranosyl)-pyrrolo[2,3-d]pyrimidine]	–	–	–	–	–	–	8810 nM	110 nM	490 nM	> 64000 nM	> 64000 nM	145 to 148 °C (dec.)	14700 nM	EC50 (T. brucei Squib 427; [9]): < 10000 nM
N=C(N)c1ccc(OCCCCCOc2ccc(C(=N)N)cc2)cc1 [Pentamidine]	–	18 ± 2 nM	1.8	990 ± 160 nM	140 ± 40 nM	–	–	–	–	–	–	–	–	EC50 ([1]; reference cell line): 11 ± 1 nM
Cc1ccc(C(=O)Nc2ccc(S(=O)(=O)O)c3cc(S(=O)(=O)O)cc(S(=O)(=O)O)c23)cc1NC(=O)c1cccc(NC(=O)Nc2cccc(C(=O)Nc3cc(C(=O)Nc4ccc(S(=O)(=O)O)c5cc(S(=O)(=O)O)cc(S(=O)(=O)O)c45)ccc3C)c2)c1 [Suramin, reference compound]	–	–	–	–	–	–	–	–	–	–	–	–	–	clinical symptoms of trypanosomiasis / parasitemia (T. b. brucei Squib 427): no symptoms nor parasitemia developed; EC50 (T. brucei Squib 427; Table 1, average of 2-4 independent determinations, read-out: T. brucei brucei EC50): 50 nM; EC50 (T. brucei Squib 427; Table 4, average of 2-6 independent determinations, read-out: T.b. brucei EC50): 50 nM; EC50 ([5]; Table 1, average of 2-4 independent determinations, read-out: T. brucei rhod. EC50): 40 nM; EC50 ([5]; Table 4, average of 2-6 independent determinations, read-out: T.b. rhod. EC50): 40 nM
Nc1ncnc2c1c(-c1ccccn1)cn2[C@@H]1O[C@H](CO)[C@@H](O)[C@H]1O [TH1008, 4-amino-5-(pyrid-2-yl)-N7-(β-D-ribofuranosyl)-pyrrolo[2,3-d]pyrimidine]	170 ± 40 nM	400 ± 90 nM	2.4	270 ± 40 nM	430 ± 70 nM	2.5	360 nM	–	5020 nM	–	–	–	31 nM	detectability of parasites in the peripheral blood (T. b. brucei Squib 427; 25 mg/kg PO b.i.d. for 5 days): undetectable from 8 dpi onwards; parasites in the peripheral blood, mean Log10 (T. b. brucei Squib 427; 4 dpi, 25 mg/kg PO b.i.d. for 5 days): 7.5; parasitological cure (sub-inoculation in naive mice) (T. b. brucei Squib 427; animals surviving until day 21 post infection): total parasitological cure; clinical symptoms of trypanosomiasis / parasitemia (T. b. brucei Squib 427): no clinical symptoms of trypanosomiasis were observed; adverse drug effects (T. b. brucei Squib 427; mice, 5 days treatment): No signs of adverse drug effects were observed; anti-trypanosomal activity against T. brucei, in words (T. brucei Squib 427): nanomolar antitrypanosomal activity; selectivity index (SI) for T. b. brucei (T. brucei Squib 427): 50; RF (resistance factor) B48 (T. b. brucei B48): 1.6; selectivity index for T. b. rhodesiense ([5]; MRC-5 versus T. b. rhodesiense): ~500
Nc1ncnc2c1c(-c1ccc(Cl)cc1)cn2[C@@H]1O[C@H](CO)[C@@H](O)[C@H]1O [TH1012, 4-amino-5-(4-chlorophenyl)-N7-(β-D-ribofuranosyl)-pyrrolo[2,3-d]pyrimidine]	–	–	–	–	–	–	7580 nM	30 nM	470 nM	27000 nM	27000 nM	–	–	blood parasitemia (T. cruzi (Y-strain)): full suppression of parasitemia; mortality caused by the infection (T. cruzi (Y-strain)): protected animals from mortality; anti-trypanosomal activity against T. brucei, in words (T. brucei Squib 427): low μM EC50
